Experimental: The suspensions were stirred for 24 hours at 25° C. The undissolved residues were removed by filtration through a […] filter. The solutions were diluted with a 1:1 water/ethanol mixture and concentrations of the guest molecules were determined spectrophotometrically using an HP 8542 diode array spectrophotometer. The solubility of the guest molecules was represented as a function of the CD derivative concentration. The apparent binding constants were calculated from the slope of the solubility isotherm. The guest molecules evaluated were water-immiscible pharmaceuticals, fragrances, and other organic molecules.

Compound	Binding constants compared with HP-β-CD, in words	Kc(HBen-β-CD), apparent binding constant in guest molecule/CD derivative complex [M⁻¹]	Kc(HP-β-CD), apparent binding constant in guest molecule/CD derivative complex [M⁻¹]
hydroxybutenyl-β-cyclodextrin [HBen-β-CD]	higher binding constants than did HP-β-CD	–	–
COc1ccc(Cl)cc1C(=O)NCCc1ccc(S(=O)(=O)NC(=O)NC2CCCCC2)cc1 [Glibenclamide, glibenclamide]	–	136	62
CC(C)Cc1ccc(C(C)C(=O)O)cc1 (centres unmarked) [Ibuprofen, ibuprofen]	–	520	376
Cc1ccccc1 [Toluene, toluene]	–	1111	773
O=C(O)c1ccccc1O [Salicylic Acid, salicylic acid]	–	183	–
